Columns and labels:
ferritin heavy chain = assay: Kidney ferritin heavy chain expression (Western blotting); type: in vivo, mice; details: 18 hrs following 1 umole SnPP, 1 mg FeS or combined
Description: FIG. 32. Ferritin heavy chain expression (as determined by Western blotting) in kidneys 18 hrs following 1 umole tin protoporphyrin (SnPP), 1 mg Fe sucrose (FeS) or combined SnPP+FeS treatment.

maleate model of AKI = assay: Maleate model of AKI (800 mg/Kg), FeS/SnPP and FeS/B12; type: in vivo, CD-1 mice; details: IV 18 hrs before 800 mg/Kg maleate; 18 hrs post maleate; 1 mg FeS, 1 μmole SnPP or B12
Text: Effects of Fe sucrose (FeS)/tin protoporphyrin (SnPP) on AKI severity. Maleate model of AKI. When injected into rodents, maleate undergoes relatively selective proximal tubule cell uptake via organic anion transporters. Once intracellular accumulation occurs, maleate is a preferred substrate for succinyl-CoA:3-oxoacid CoA transferase. […] Ample levels of CoA are essential for fatty acid “activation”, allowing for their subsequent metabolism through the Krebs cycle, yielding ATP. In the absence of this process, proximal tubule ATP depletion and cell injury result. Additionally, maleate conjugates the sulfhydryl group of glutathione (GSH), culminating in GSH depletion and potential oxidant tubular stress.
The following experiment tested whether FeS, SnPP or combined FeS+SnPP can mitigate this form of acute kidney injury (AKI). Twenty seven mice were subjected to 200 μL IV tail injections of one of the following: 1) vehicle (phosphate buffered saline, PBS; n, 10); 2) 1 mg FeS (American Regent (Shirley, N.Y.; n, 3); 3) 1 μmole SnPP (Frontier Scientific, Logan, Utah; n 7), or FeS+SnPP, n, 7). […] The severity of kidney injury was assessed by determining plasma blood urea nitrogen (BUN) and plasma creatinine (PCr) concentrations.
Maleate model of AKI. […] The severity of AKI was determined 18 hrs post maleate injection by terminal BUN and PCr assessments.

HO-1 protein = assay: Renal cortical HO-1 protein (ELISA) after FeS, SnPP, B12; type: in vivo, CD-1 mice
Description: Effects of FeS, SnPP, and B12 on renal cortical induction of heme oxygenase 1(HO-1). The following experiments assessed the effects of FeS, SnPP, and B12 on the possible induction of the cytoprotective protein HO-1. To this end, mice were injected with each of these agents, as noted above. Either 4 or 18 hrs later, they were anesthetized and the kidneys were removed through a midline abdominal incision. The renal cortices were dissected on ice and then extracted for protein and mRNA. The samples were then assayed for HO-1 protein by ELISA, and HO-1 mRNA by RT-PCR, factored by GAPDH levels. Five normal mice provided control values.

iron sucrose [FeS]
Ferritin heavy chain protein levels in kidney (ferritin heavy chain): strong ferritin inducer | Severity of maleate-induced AKI (BUN/PCr), in words (maleate model of AKI): Neither SnPP alone nor FeS alone significantly altered the severity of renal injury | HO-1 protein increases (FIG. 21) (HO-1 protein; 4 hrs and 18 hrs after IV injection): marked HO-1 protein increases within 4 hrs and persists for 18 hrs | Renal cortical HO-1 protein levels (HO-1 protein; 18 hr time point): remained elevated at the 18 hr time point, particularly in the case of FeS administration

Source: US20190358242A1, “COMPOSITIONS, KITS, AND METHODS TO INDUCE ACQUIRED CYTORESISTANCE USING STRESS PROTEIN INDUCERS” (FRED HUTCHINSON CANCER RESEARCH CENTER, priority 2017, published 2019)
